{
  "source": "patent US4186136A",
  "about": "“Novel benzothienyl amino (propyl and butyl) ketones, a method of preparation thereof and their application to therapeutics” (priority 1975, dated 1980)",
  "key": {"mouse": {"test_system": "mouse", "test": "Acute toxicity, oral, mouse (LD 50, Miller and Tainter)", "type": "in vivo", "conditions": "death rate checked for seven days, 10080 min", "experimental": "(§1) The acute toxicity of the compounds of formula (I) were evaluated orally (esophagean probe) on a mouse deprived of food 18 hours before the beginning of the test. The products were placed in suspension in a solution of dilute carboxymethyl cellulose. Calculation of the 50 lethal dose (LD 50) was effected according to the method of Miller and Tainter (Miller L. C., Tainter M. L., Proc. Soc. Exptl. Biol. Med. 1944, 57, 261-264).\n(§2) The death rate was checked for seven days following the treatment.\n(§3) Table III gives the 50% lethal doses (LD 50) in milligrammes per kilogramme body weight."}, "rat's isolated duodenum": {"test_system": "rat's isolated duodenum", "test": "Spasmolytic activity on isolated duodenum contracted by barium chloride (Magnus)", "conditions": "for ED 50 (R) / ED 50 (X): relative to papaverine hydrochloride", "experimental": "The spasmolytic activity was studied on a rat's isolated duodenum maintained in a survival medium of an aerated Tyrode solution heated to 38° C. according to the technique of Magnus (Magnus R.-Archivs ges. Physiol., 1905, 180, 1-71).\nThe contracting agent used was barium chloride, the reference antogonist agent being papaverine hydrochloride (R). The average activity of the compounds of formula I (X) in comparison with that of the reference agent was expressed by calculating the ratio of the 50 efficient doses (ED 50) determined graphically on logarithmic paper: [formula]\nFor example: a substance having a relative activity expressed by the FIG. 2 presents an activity equal to twice that of papaverine hydrochloride."}, "[1]": {"test_system": "isolated heart of a gumea-pig", "test": "Vaso-dilatatory activity, coronary flow of isolated perfused heart", "experimental": "The coronary flow is recorded, by means of an electronic device fitted with a Fleish totaliser, before and after addition of the substance X under study (concentration: 1×10^-5 g/ml), the reference product (R) being 2,6-bis (diethanolamino) 4,8-dipiperidinopyrimido[5,4-d]pyrimidine (known under the trademark \"Dipyridamole\") used at a concentration of 1×10^-5 g/ml.\nThe percentage flow increase P was calculated at the climax of the activity of X or R."}, "[2]": {"test": "Acute toxicity, oral, mouse (LD 50, Miller and Tainter)", "type": "in vivo", "conditions": "in vivo, po, death rate checked for seven days, read-out: 50% lethal dose (LD 50) (converted)", "experimental": "as §1, §2, §3"}, "[3]": {"test_system": "phenylparaquinone (P.P.Q.) painful syndrome in a mouse", "test": "Analgesic and anti-inflammatory activity, phenylparaquinone (P.P.Q.) painful syndrome", "type": "in vivo", "conditions": "for Analgesic and anti-inflammatory activity, percentage activity a(X): 50 mg/kg digestively, crises between 10 and 15 minutes; for a(X) / a(R), analgesic and anti-inflammatory activity: X 50 mg/kg, R (Galfenine) 25 mg/kg", "experimental": "The intraperitoneal injection of phenylparaquinone (P.P.Q.) in a mouse causes the appearance of a painful syndrome appearing within 5 minutes of the injection and disappearing after about 30 minutes (SIEGMUND E. A., CADMUS A., LU G., J. Pharmacol. Exp. Therap. 1957, 119, 453). This painful syndrome manifests itself in the animal by a series of characteristic crises, more or less close together and fleeting, during which we can note a twisting or stretching of the body, a hollowing of the sides and a stretching of the hind legs.\nIt is therefore possible to note the number of crises in a given interval of time.\nThe preventive administration of analgesic or anti-inflammatory substances prevents the appearance of crises or reduces the frequency thereof.\nThe reference substance (R) used in the tests was the ester of N-(7-chloro-4 quinolyl) anthranilic acid and 2,3-dihydroxy n.propanol (known under the trademark Galfenine).\nIt was administered orally with a dose of 25 mg/kg.\nThe compounds of formula I (X) were administered digestively with a dose of 50 mg/kg.\nThe interval of time (t) which was chosen to evaluate the analgesic activity was between 10 and 15 minutes which is the period of maximum frequency of the crises. This activity was expressed in the following way:\nn: number of crises observed in the control mice;\nn': number of crises observed in mice previously treated with the reference substance (R);\nn\": number of crises observed in mice having received the substance (X).\nThe percentage activity of R is equal to [formula]\nThe percentage activity of X is equal to [formula]\nThe activity of X in relation to that of R is estimated by the ratio [formula]\nFor example: a compound X for which [formula] is 0.5 has an activity equal to half that of the reference product."}, "human blood-plaques": {"test_system": "human blood-plaques", "test": "Blood-plaque aggregation inhibition (all inducers, overall statement)", "type": "cell-based", "conditions": "compared with reference product, taking the ratio into account", "text": "(§4) The blood plaques used for these studies were human blood-plaques introduced into the test in the form of blood-plaque rich plasmas (B.P.R.P.).\n(§5) These latter were obtained as water-repellent material by slow centrifugation from human blood samples.\n(§6) The study of blood-plaque aggregation was made by means of an aggregate-meter with continuous agitation and graphic recording according to the conventional method. (PROST R. S., SOUVERAIN C. H., DOUMENC J., Etude de l'agregation plaquettaire a l'aide de l'agregametre de MUSTARD-Coagulation, 1971, 4, 2, 145-151).\n(§7) The agents employed for inducing aggregation were diphosphoric adenosine acid (D.P.A.), 1-(3',4'-di-hydroxyphenyl)-2-methylamino ethanol (adrenaline) and collagene. All these reactants were prepared from mother solutions diluted in a Michaelis' buffer. Their concentration in the test may vary according to the affinity of the blood-plaques.\n(§8) An optimum concentration is thus sought by successive tests on the same B.P.R.P.\n(§9) The inhibitory activity on the aggregation was evaluated by addition of the product under study to the B.P.R.P. before introduction of the aggregating agent.\nThe concentrations of compounds of formula I (X) in the B.P.R.P. are: C (X)=2.5×10^-5 g/ml for aggregation with D.P.A. and adrenaline, and C (X)=2×10^-5 g/ml for collagene. […]"}, "[4]": {"test_system": "human blood-plaques (aggregation with adrenaline)", "test": "Inhibition of blood-plaque aggregation induced by adrenaline", "type": "cell-based", "conditions": "hydrochloride", "text": "as §4, §5, §6, §7, §8, §9\n(§10) The concentrations of compounds of formula I (X) in the B.P.R.P. are: C (X)=2.5×10^-5 g/ml for aggregation with D.P.A. and adrenaline, and C (X)=2×10^-5 g/ml for collagene.\n(§11) The reference product (R) is 2,6-bis (diethanolamino)-4,8-dipiperidinopyrimido[5,4-d]pyramidine (known under the trademark \"Dipyridamole\") used in the concentration C (R)=5×10^-4 g/ml for aggregation with D.P.A. and adrenaline and C (R)=2×10^-4 g/ml for aggregation with collagene.\n(§12) The following table IV indicates the activity of some compounds of formula I: a (X) the activity of the reference product: a (R) and the different values of the ratio: [formula]"}, "[5]": {"test_system": "human blood-plaques (aggregation with collagene)", "test": "Inhibition of blood-plaque aggregation induced by collagene", "type": "cell-based", "conditions": "for Ratio of a (X) to a (R), COLLAGENE (head drawn): X 2×10^-5 g/ml, R 2×10^-4 g/ml", "text": "as §4, §5, §6, §7, §8, §9, §10, §11, §12"}, "[6]": {"test_system": "human blood-plaques (aggregation with D.P.A.)", "test": "Inhibition of blood-plaque aggregation induced by D.P.A.", "type": "cell-based", "text": "as §4, §5, §6, §7, §8, §9, §10, §11, §12"}},
  "note": "Structures can show the parent of a compound that is named as a salt.",
  "data": [
    {"smiles": "CCN(CC)CCCC(=O)c1csc2ccccc12", "note": "[Compound 10]", "values": [
      {"measurement": "50% lethal dose (LD 50)", "setting": "mouse", "value": "1 100 mg/kg/p.o."},
      {"measurement": "ED 50 (R) / ED 50 (X)", "setting": "rat's isolated duodenum", "value": 1.05},
      {"measurement": "activation at 10 µg/mL", "setting": "[1]; 1×10^-5 g/ml, coronary flow at climax of activity, Locke, 37° C., read-out: Percentage flow increase P (X)", "value": 60, "unit": "%"},
      {"measurement": "P (X) / P (R)", "setting": "[1]; relative to Dipyridamole, both 1×10^-5 g/ml", "value": 1.4}
    ]},
    {"smiles": "O=C(CCCN1CCOCC1)c1csc2ccccc12", "note": "[Compound 17]", "values": [
      {"measurement": "LD50 at 168 h", "setting": "[2]", "value": 1000, "unit": "mg/kg"},
      {"measurement": "IC50", "setting": "rat's isolated duodenum; Rattus norvegicus, barium chloride contraction, Tyrode, 38° C., read-out: Spasmolytic activity ED 50 (X)", "value": 2.15, "unit": "µg/mL"},
      {"measurement": "ED 50 (R) / ED 50 (X)", "setting": "rat's isolated duodenum", "value": 3.4},
      {"measurement": "Analgesic and anti-inflammatory activity, percentage activity a(X)", "setting": "[3]", "value": 55, "unit": "%"},
      {"measurement": "a(X) / a(R), analgesic and anti-inflammatory activity", "setting": "[3]", "value": 1.2},
      {"measurement": "Inhibitory activity on the blood-plaque aggregation (in words)", "setting": "human blood-plaques", "value": "substantially superior"}
    ]},
    {"smiles": "O=C(CCCN1CCOCC1)c1cc2ccccc2s1", "note": "[Compound 2, 1-(benzothien-2'-yl)-4-N-morpholino butanone hydrochloride]", "values": [
      {"measurement": "50% lethal dose (LD 50)", "setting": "mouse; hydrochloride", "value": "1 500 mg/kg/p.o."},
      {"measurement": "Inhibitory activity of the blood-plaque aggregation, ADRENALINE, a (X)", "setting": "[4]; C (X)=2.5×10^-5 g/ml", "value": 15, "unit": "%"},
      {"measurement": "Ratio of a (X) to a (R), ADRENALINE (head drawn)", "setting": "[4]; adrenaline, X 2.5×10^-5 g/ml, R 5×10^-4 g/ml", "value": "1.65×10^-1"},
      {"measurement": "Inhibitory activity of the blood-plaque aggregation, COLLAGENE, a (X)", "setting": "[5]; C (X)=2×10^-5 g/ml, hydrochloride", "value": 12, "unit": "%"},
      {"measurement": "Ratio of a (X) to a (R), COLLAGENE (head drawn)", "setting": "[5]; hydrochloride", "value": "3.3×10^-1"},
      {"measurement": "Analgesic and anti-inflammatory activity, percentage activity a(X)", "setting": "[3]; hydrochloride", "value": 38, "unit": "%"},
      {"measurement": "a(X) / a(R), analgesic and anti-inflammatory activity", "setting": "[3]; hydrochloride", "value": "5 × 10^-1"}
    ]},
    {"smiles": "O=C(CCCN1CCCCCC1)c1csc2ccccc12", "note": "[Compound 16]", "values": [
      {"measurement": "50% lethal dose (LD 50)", "setting": "mouse", "value": "1 200 mg/kg/p.o."},
      {"measurement": "Inhibitory activity of the blood-plaque aggregation, D.P.A., a (X)", "setting": "[6]; C (X)=2.5×10^-5 g/ml", "value": 47, "unit": "%"},
      {"measurement": "Ratio of a (X) to a (R), D.P.A. (head drawn)", "setting": "[6]; D.P.A., X 2.5×10^-5 g/ml, R 5×10^-4 g/ml", "value": "5.5×10^-1"},
      {"measurement": "inhibition at 20 µg/mL", "setting": "[5]; Homo sapiens, C (X)=2×10^-5 g/ml, read-out: Inhibitory activity of the blood-plaque aggregation, COLLAGENE, a (X)", "value": 92, "unit": "%"},
      {"measurement": "Ratio of a (X) to a (R), COLLAGENE (head drawn)", "setting": "[5]", "value": 2.5},
      {"measurement": "ED 50 (R) / ED 50 (X)", "setting": "rat's isolated duodenum", "value": 2.7},
      {"measurement": "Analgesic and anti-inflammatory activity, percentage activity a(X)", "setting": "[3]", "value": 44, "unit": "%"},
      {"measurement": "a(X) / a(R), analgesic and anti-inflammatory activity", "setting": "[3]", "value": "5.9 × 10^-1"}
    ]}
  ]
}
